Data set [1] deals with Panc02. Nature of the data set: Antiproliferative activity against mouse Panc02 cells assessed as inhibition of cell proliferation at 1 uM incubated for 72 hrs by SRB assay relative to control. The class given is functional. A general note: In SRB staining, fixed cells bind dye roughly in proportion to their protein.
In data set [2] the test system is MIA PaCa-2. In words: Antiproliferative activity against human MIA PaCa-2 cells assessed as inhibition of cell proliferation at 1 uM incubated for 72 hrs by SRB assay relative to control. The data set is classed as functional.
For data set [3], the system named is CFPAC-1. In words: Antiproliferative activity against human CFPAC-1 cells assessed as inhibition of cell proliferation at 1 uM incubated for 72 hrs by SRB assay relative to control. The class given is functional.
A short description of data set [4]: Antiproliferative activity against human L02 cells assessed as inhibition of cell proliferation at 1 uM incubated for 72 hrs by SRB assay relative to control. The class given is toxicity, cell-based.
Data set [5] relates to PaTu 8988t. Nature of the data set: Antiproliferative activity against human PaTu 8988t cells assessed as inhibition of cell proliferation at 1 uM incubated for 72 hrs by SRB assay relative to control. The class given is functional.
Data set [6] deals with CFPAC-1. In words: Effect on beclin-1 level in human CFPAC-1 cells at 10 to 1000 nM incubated for 24 hrs by Western blot analysis. The data set is classed as functional, cell-based. The settings on record: dose 10-1000 nM. A general note: Immunoblotting shows a protein as a band on a membrane.
Data set [7] has as its system CFPAC-1. Nature of the data set: Downregulation of CDK4 expression level in human CFPAC-1 cells incubated for 24 hrs by Western blot analysis. The class given is functional, cell-based. The settings on record: dose 10-1000 nM.
Data set [8] deals with CFPAC-1. Nature of the data set: Inhibition of autophagy at later stage in human CFPAC-1 cells assessed as increase in LC3-II/LC3-I ratio at 10 to 1000 nM incubated for 24 hrs by Western blot analysis. The class given is functional, cell-based. The conditions noted are these: dose 10-1000 nM.
Data set [9] concerns CFPAC-1. Nature of the data set: Downregulation of cyclin D1 expression level in human CFPAC-1 cells incubated for 24 hrs by Western blot analysis. The data set is classed as functional, cell-based. The settings on record: dose 10-1000 nM.
Data set [10] relates to CFPAC-1. In words: Inhibition of autophagy at later stage in human CFPAC-1 cells assessed as increase in LC3-II/LC3-I ratio at 1 uM incubated for 24 hrs in presence of chloroquine by Western blot analysis. The class given is functional, cell-based.
Data set [11] concerns CFPAC-1. In words: Antiproliferative activity against human CFPAC-1 cells assessed as inhibition of cell proliferation incubated for 72 hrs by SRB assay. The data set is classed as functional, cell-based. The settings on record: CFPAC-1, 72 h.
The subject of data set [12] is Panc02. In words: Antiproliferative activity against mouse Panc02 cells assessed as inhibition of cell proliferation incubated for 72 hrs by SRB assay. The data set is classed as functional, cell-based. The settings on record: Panc02, 72 h.
A short description of data set [13]: Antiproliferative activity against human L02 cells assessed as inhibition of cell proliferation incubated for 72 hrs by SRB assay. The data set is classed as toxicity, cell-based.
Data set [14] deals with PaTu 8988t. In words: Antiproliferative activity against human PaTu 8988t cells assessed as inhibition of cell proliferation incubated for 72 hrs by SRB assay. The class given is functional, cell-based.
Data set [15] relates to MIA PaCa-2. Nature of the data set: Antiproliferative activity against human MIA PaCa-2 cells assessed as inhibition of cell proliferation incubated for 72 hrs by SRB assay. The data set is classed as functional, cell-based. The settings on record: MIA PaCa-2, 72 h.
Data set [16] can be described thus: Metabolic stability in mouse liver microsome assessed as intrinsic clearance. The class given is ADME. The conditions noted are these: liver microsomes, read-out: CLH. (Liver microsomes are a subcellular fraction often used to study metabolism.)
Data set [17] can be described thus: Metabolic stability in human liver microsome assessed as hepatic clearance. The data set is classed as ADME. The conditions noted are these: microsomes.
Data set [18] can be described thus: Metabolic stability in mouse liver microsome assessed as half life. The class given is ADME. The settings on record: liver microsomes.
Data set [19] is described as follows: Metabolic stability in mouse liver microsome assessed as hepatic clearance. The class given is ADME. The conditions noted are these: microsomes.
Data set [20] can be described thus: Metabolic stability in human liver microsome assessed as intrinsic clearance. The conditions noted are these: liver microsomes, read-out: CLH. The data set is classed as ADME.
Data set [21] is described as follows: Metabolic stability in human liver microsome assessed as half life. The class given is ADME. The settings on record: liver microsomes.
A short description of data set [22]: Aqueous solubility of the compound at 1 to 2 mg measured after 24 hrs by HPLC-MS analysis. The class given is physicochemical. The conditions noted are these: aqueous (not further specified), dose 1-2 mg.

Each structure is given as a SMILES string. Calls of active or inactive are those of the source. The rule behind the calls is not given here. Bounds are passed on as bounds.

As usually defined, the inhibition is the change of the read-out against control, counted positive when it falls. Regarding `COc1cc2c(NS(N)(=O)=O)c3c(c(-c4ccc5c(c4)OCO5)c2cc1OC)C(=O)OC3`, the inhibition at 1 µM with Panc02 [1] turned out to be 80.7%; in the data set with MIA PaCa-2 [2] it was 29%; in the data set with CFPAC-1 [3], 72.4%; with PaTu 8988t [5], 34.1%. The inhibition at 72 h, 1 µM in data set [4] was 14.9%.
Consider `COc1cc2c(N)c3c(c(-c4ccc5c(c4)OCO5)c2cc1OC)C(=O)OC3`, for which, in the data set on CFPAC-1 [6], the outcome was inactive. Besides, the Activity result in the data set on CFPAC-1 [7] and in the data set on CFPAC-1 [9] was “Dose-Dependent Effect” throughout. Also, the inhibition result with CFPAC-1 [8] and in the data set with CFPAC-1 [10] was “Active” in each case.
As to `COc1cc2c(OCCCc3cn([C@H]4O[C@@H](C)[C@H](O)[C@@H](O)[C@H]4O)nn3)c3c(c(-c4ccc5c(c4)OCO5)c2cc1OC)C(=O)OC3`, the inhibition at 1 µM stood at 16.6% with Panc02 [1], 46.5% in the data set on MIA PaCa-2 [2], 45.9% with CFPAC-1 [3] and 8.08% in the data set on PaTu 8988t [5]. Also, the inhibition at 72 h, 1 µM in data set [4] is -0.18%.
What is called IC50 is the concentration needed to halve the response being measured. Consider `COc1cc2c(OCCOCc3cn([C@H]4O[C@@H](C)[C@H](OC(C)=O)[C@@H](OC(C)=O)[C@H]4OC(C)=O)nn3)c3c(c(-c4ccc5c(c4)OCO5)c2cc1OC)C(=O)OC3`, for which the inhibition at 1 µM was determined as 53.4% in the data set with Panc02 [1], 72.4% in the data set on MIA PaCa-2 [2], 66.7% in the data set with CFPAC-1 [3] and 86.5% with PaTu 8988t [5]. Also, the half-maximal inhibitory concentration (IC50) turned out to be 50 nM in the data set with CFPAC-1 [11], 216 nM in the data set with Panc02 [12], 766 nM with PaTu 8988t [14] and 756 nM in the data set with MIA PaCa-2 [15]. Besides, the IC50 at 72 h in data set [13] came out at 1040 nM. Besides, the inhibition at 72 h, 1 µM in [4] is 16.4%.
On to `CNc1c2c(c(-c3ccc4c(c3)OCO4)c3cc(OC)c(OC)cc13)C(=O)OC2`, for which the inhibition at 1 µM in the data set on Panc02 [1] amounted to 91.4%; with MIA PaCa-2 [2] it was 92.3%; with CFPAC-1 [3] it was 82.1%; in the data set with PaTu 8988t [5] it was 92%. Moreover, in data set [4], the inhibition at 72 h, 1 µM came to 35.5%.
In the case of `COc1cc2c(OCCOCc3cn([C@H]4O[C@@H](C)[C@H](O)[C@@H](O)[C@H]4O)nn3)c3c(c(-c4ccc5c(c4)OCO5)c2cc1OC)C(=O)OC3`, the inhibition at 1 µM worked out at 46% in the data set on Panc02 [1], 0.16% with MIA PaCa-2 [2], 53.9% in the data set on CFPAC-1 [3] and 0.9% in the data set with PaTu 8988t [5]. For the same compound, in data set [4], the inhibition at 72 h, 1 µM came to 1.57%.
As usually defined, the half-life is the time in which the quantity being followed falls by half. Take `COc1cc2c(OCCCc3cn([C@H]4O[C@@H](C)[C@H](OC(C)=O)[C@@H](OC(C)=O)[C@H]4OC(C)=O)nn3)c3c(c(-c4ccc5c(c4)OCO5)c2cc1OC)C(=O)OC3`: the microsomal CLint in [16] and in data set [20] was above 277 µL/min/mg in each case. For the same compound, the inhibition at 1 µM in the data set with Panc02 [1] was found to be 86.7%; in the data set on MIA PaCa-2 [2] it was 93.6%; in the data set on CFPAC-1 [3], 75.7%; in the data set on PaTu 8988t [5], 93.9%. For the same compound, the figures for the CLH in [17] and in [19] were above 19.4 mL/min/kg and above 83.2 mL/min/kg, respectively. Also, the half-inhibitory concentration (IC50) turned out to be 7 nM in the data set on CFPAC-1 [11], 12 nM in the data set on Panc02 [12], 24 nM in the data set with PaTu 8988t [14] and 40 nM in the data set with MIA PaCa-2 [15]. For the same compound, the half-life in data set [18] and in [21] was below 5 min throughout. Further, the IC50 at 72 h in [13] was 494 nM. Also, the inhibition at 72 h, 1 µM in [4] was determined as 38.3%.
Regarding `COc1cc2c(OCc3cn([C@H]4O[C@@H](C)[C@H](OC(C)=O)[C@@H](OC(C)=O)[C@H]4OC(C)=O)nn3)c3c(c(-c4ccc5c(c4)OCO5)c2cc1OC)C(=O)OC3`, the inhibition at 1 µM came out at 76.3% in the data set with Panc02 [1], 83.7% with MIA PaCa-2 [2], 65.9% in the data set with CFPAC-1 [3] and 72.5% in the data set on PaTu 8988t [5]. Also, the IC50 with CFPAC-1 [11] came out at 97 nM; with Panc02 [12], 270 nM; in the data set with PaTu 8988t [14] it was 163 nM; in the data set with MIA PaCa-2 [15], 248 nM. For the same compound, the IC50 at 72 h in data set [13] was 1230 nM. Further, the inhibition at 72 h, 1 µM in [4] amounted to 21.6%.
As usually defined, the solubility is the concentration that dissolves in the medium under given conditions. `COc1cc2c(N)c3c(c(-c4ccc5c(c4)OCO5)c2cc1OC)C(=O)OC3.Cl` gave a solubility at 24 h in data set [22] of 0.055 µg/mL.
As for `COc1cc2c(NC(=O)OC(C)(C)C)c3c(c(-c4ccc5c(c4)OCO5)c2cc1OC)C(=O)OC3`, the inhibition at 1 µM in the data set on Panc02 [1] stood at 78.1%; with MIA PaCa-2 [2], 52.5%; with CFPAC-1 [3], 70.5%; in the data set with PaTu 8988t [5], 72%. The IC50 with CFPAC-1 [11] was determined as 37 nM; in the data set with Panc02 [12], 261 nM; in the data set on PaTu 8988t [14] it was 88 nM; in the data set on MIA PaCa-2 [15], 161 nM. Further, in data set [13], the IC50 at 72 h amounted to 5120 nM. Also, the inhibition at 72 h, 1 µM in data set [4] turned out to be 9.56%.
`COc1cc2c(OCc3cn([C@H]4O[C@@H](C)[C@H](O)[C@@H](O)[C@H]4O)nn3)c3c(c(-c4ccc5c(c4)OCO5)c2cc1OC)C(=O)OC3`: the inhibition at 1 µM with Panc02 [1] was 8.85%; in the data set with MIA PaCa-2 [2], 0.95%; in the data set on CFPAC-1 [3] it was 14.9%; with PaTu 8988t [5], -2.09%. Besides, the inhibition at 72 h, 1 µM in [4] is -1.75%.
Take `COc1cc2c(NC(=O)[C@H](C)N)c3c(c(-c4ccc5c(c4)OCO5)c2cc1OC)C(=O)OC3`: the inhibition at 1 µM with Panc02 [1] is 25.3%; in the data set on MIA PaCa-2 [2], 0.64%; in the data set on CFPAC-1 [3] it was 42.7%; with PaTu 8988t [5], -4.32%. Also, the inhibition at 72 h, 1 µM in data set [4] came to 1.54%.
For the compound `COc1cc2c(NC(=O)[C@@H](N)COC(C)=O)c3c(c(-c4ccc5c(c4)OCO5)c2cc1OC)C(=O)OC3`, the inhibition at 1 µM in the data set on Panc02 [1] turned out to be 8.86%; in the data set on MIA PaCa-2 [2], 3.38%; with CFPAC-1 [3], 11.6%; with PaTu 8988t [5], 2.63%. For the same compound, the inhibition at 72 h, 1 µM in [4] is -0.71%.
For the compound `COC(=O)CNc1c2c(c(-c3ccc4c(c3)OCO4)c3cc(OC)c(OC)cc13)C(=O)OC2`, the inhibition at 1 µM with Panc02 [1] worked out at 42%; in the data set with MIA PaCa-2 [2] it was 10.2%; in the data set with CFPAC-1 [3], 48.4%; with PaTu 8988t [5], 85.2%. In addition, the inhibition at 72 h, 1 µM in data set [4] was 10.8%.

Source of the values: ChEMBL document CHEMBL5352426, “Synthesis and anti-tumor activity of nitrogen-containing derivatives of the natural product diphyllin” (Eur J Med Chem, 2022).
